In US12077503B2, “Substituted cyclic amides and their use as herbicides” (FMC CORPORATION, priority 2015, dated 2024):

Assays:
Type in all cases: in vivo
[1] = test system: Kochia (Kochia scoparia); assay: Test A preemergence; conditions: Bassia scoparia, pre-emergence, 240 h
Summary of the method: (§1)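 Preemergence directed soil spray on seeded pots, or postemergence application to plants 2–10 cm, one- to two-leaf. Solvent mixture non-phytotoxic, with surfactant. Scored ~10 d later, visually, 0–100 vs untreated.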

[2] = test system: barnyardgrass (Echinochloa crus-galli); assay: Test A preemergence; conditions: Echinochloa crus-galli, pre-emergence, 240 h
Summary of the method: as §1

[3] = test system: giant foxtail (Setaria faberii); assay: Test A preemergence; conditions: Setaria faberi, pre-emergence, 240 h
Summary of the method: as §1

[4] = test system: pigweed (Amaranthus retroflexus); assay: Test A preemergence; conditions: Amaranthus retroflexus, pre-emergence, 240 h
[5] = test system: ragweed (common ragweed, Ambrosia elatior); assay: Test A preemergence; conditions: Ambrosia artemisiifolia, pre-emergence, 240 h
Summary of the method: as §1

[6] = test system: ryegrass, Italian (Italian ryegrass, Lolium multiflorum); assay: Test A preemergence; conditions: Lolium multiflorum, pre-emergence, 240 h
Summary of the method: as §1

[7] = test system: Galium (catchweed bedstraw, Galium aparine); assay: Test A postemergence; conditions: Galium, post-emergence, 240 h, read-out: Plant response rating, Galium
Summary of the method: as §1

[8] = test system: Kochia (Kochia scoparia); assay: Test A postemergence; conditions: Bassia scoparia, post-emergence, 240 h, read-out: Plant response rating, Kochia
Summary of the method: as §1

[9] = test system: barnyardgrass (Echinochloa crus-galli); assay: Test A postemergence; conditions: Echinochloa crus-galli, post-emergence, 240 h, read-out: Plant response rating, Barnyardgrass
Summary of the method: as §1

[10] = test system: blackgrass (Alopecurus myosuroides); assay: Test A postemergence; conditions: Alopecurus myosuroides, post-emergence, 240 h, read-out: Plant response rating, Blackgrass
Summary of the method: as §1

[11] = test system: corn (Zea mays); assay: Test A postemergence; conditions: Zea mays, post-emergence, 240 h
Summary of the method: as §1

[12] = test system: giant foxtail (Setaria faberii); assay: Test A postemergence; conditions: Setaria faberi, post-emergence, 240 h, read-out: Plant response rating, Foxtail, Giant
Summary of the method: as §1

[13] = test system: pigweed (Amaranthus retroflexus); assay: Test A postemergence; conditions: Amaranthus retroflexus, post-emergence, 240 h, read-out: Plant response rating, Pigweed
Summary of the method: as §1

[14] = test system: ragweed (common ragweed, Ambrosia elatior); assay: Test A postemergence; conditions: Ambrosia artemisiifolia, post-emergence, 240 h, read-out: Plant response rating, Ragweed
Summary of the method: as §1

[15] = test system: ryegrass, Italian (Italian ryegrass, Lolium multiflorum); assay: Test A postemergence; conditions: Lolium multiflorum, post-emergence, 240 h, read-out: Plant response rating, Ryegrass, Italian
Summary of the method: as §1

[16] = test system: wheat (Triticum aestivum); assay: Test A postemergence; conditions: Triticum aestivum, post-emergence, 240 h, read-out: Plant response rating, Wheat
Summary of the method: as §1

[17] = test system: barnyardgrass (Echinochloa crus-galli); assay: Test B flooded paddy test; conditions: Echinochloa crus-galli, 250 g ai/ha, Flood; 0 to 100 scale where 0 is no effect and 100 is complete control; read-out: Barnyardgrass plant response rating
Summary of the method: (§2)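 Evaluation by eye, against controls, occurred 13–15 d post-treatment in a greenhouse, using a 0 (no effect) to 100 (complete control) scale. Application was into the paddy water, 3 cm deep over the soil, on 2-leaf plants.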

[18] = test system: ducksalad (Heteranthera limosa); assay: Test B flooded paddy test; conditions: Heteranthera limosa, 250 g ai/ha, Flood; 0 to 100 scale where 0 is no effect and 100 is complete control; read-out: Ducksalad plant response rating
Summary of the method: as §2

[19] = test system: rice (Oryra sativa); assay: Test B flooded paddy test; conditions: Oryza sativa, 250 g ai/ha, Flood; 0 to 100 scale where 0 is no effect and 100 is complete control; read-out: Rice plant response rating
Summary of the method: as §2

[20] = test system: sedge, umbrella (small-flower umbrella sedge, Cyperus difformis); assay: Test B flooded paddy test; conditions: Cyperus difformis, 250 g ai/ha, Flood; 0 to 100 scale where 0 is no effect and 100 is complete control; read-out: Sedge, Umbrella plant response rating
Summary of the method: as §2

[21] = 125 g ai/ha, Postemergence, visual injury after approximately 10 d, 0 to 100 scale where 0 is no effect and 100 is complete control
[22] = 500 g ai/ha, postemergence, visual injury, 0 to 100 scale (0 no effect, 100 complete control), approx. 10 d

## CN1CC[C@H](c2ccc(OC(F)(F)F)cc2)[C@@H](C(=O)Nc2ccc(F)c(F)c2F)C1=O [Compound 1000]
[1]; 125 g ai/ha, Preemergence, visual injury rating after approximately 10 d, read-out: Kochia plant response rating (0 to 100 scale, 0 is no effect, 100 is complete control)
  pest or weed control at 125 g/ha: 0%
[1]; 500 g ai/ha, preemergence, visual injury rating about 10 d after treatment, 0 to 100 scale (0 no effect, 100 complete control), read-out: Kochia plant response rating
  pest or weed control at 500 g/ha: 0%
[2]; 125 g ai/ha, Preemergence, visual injury rating after approximately 10 d, read-out: Barnyardgrass plant response rating (0 to 100 scale, 0 is no effect, 100 is complete control)
  pest or weed control at 125 g/ha: 0%
[2]; 500 g ai/ha, preemergence, visual injury rating about 10 d after treatment, 0 to 100 scale (0 no effect, 100 complete control), read-out: Barnyardgrass plant response rating
  pest or weed control at 500 g/ha: 60%
[3]; 125 g ai/ha, Preemergence, visual injury rating after approximately 10 d, read-out: Foxtail, Giant plant response rating (0 to 100 scale, 0 is no effect, 100 is complete control)
  pest or weed control at 125 g/ha: 70%
[3]; 500 g ai/ha, preemergence, visual injury rating about 10 d after treatment, 0 to 100 scale (0 no effect, 100 complete control), read-out: Foxtail, Giant plant response rating
  pest or weed control at 500 g/ha: 90%
[4]; 125 g ai/ha, Preemergence, visual injury rating after approximately 10 d, read-out: Pigweed plant response rating (0 to 100 scale, 0 is no effect, 100 is complete control)
  pest or weed control at 125 g/ha: 20%
[4]; 500 g ai/ha, preemergence, visual injury rating about 10 d after treatment, 0 to 100 scale (0 no effect, 100 complete control), read-out: Pigweed plant response rating
  pest or weed control at 500 g/ha: 40%
[5]; 125 g ai/ha, Preemergence, visual injury rating after approximately 10 d, read-out: Ragweed plant response rating (0 to 100 scale, 0 is no effect, 100 is complete control)
  pest or weed control at 125 g/ha: 0%
[5]; 500 g ai/ha, preemergence, visual injury rating about 10 d after treatment, 0 to 100 scale (0 no effect, 100 complete control), read-out: Ragweed plant response rating
  pest or weed control at 500 g/ha: 0%
[6]; 125 g ai/ha, Preemergence, visual injury rating after approximately 10 d, read-out: Ryegrass, Italian plant response rating (0 to 100 scale, 0 is no effect, 100 is complete control)
  pest or weed control at 125 g/ha: 0%
[6]; 500 g ai/ha, preemergence, visual injury rating about 10 d after treatment, 0 to 100 scale (0 no effect, 100 complete control), read-out: Ryegrass, Italian plant response rating
  pest or weed control at 500 g/ha: 20%
[7]; [21]
  pest or weed control at 125 g/ha: 0%
[7]; [22]
  pest or weed control at 500 g/ha: 0%
[8]; [21]
  pest or weed control at 125 g/ha: 40%
[8]; [22]
  pest or weed control at 500 g/ha: 40%
[9]; [21]
  pest or weed control at 125 g/ha: 60%
[9]; [22]
  pest or weed control at 500 g/ha: 100%
[10]; [21]
  pest or weed control at 125 g/ha: 0%
[10]; [22]
  pest or weed control at 500 g/ha: 0%
[11]; [21]
  Corn plant response rating (crop injury, 0 = no effect, 100 = complete kill) at 125 g/ha: 0%
[11]; [22]
  Corn plant response rating (crop injury, 0 = no effect, 100 = complete kill) at 500 g/ha: 20%
[12]; [21]
  pest or weed control at 125 g/ha: 0%
[12]; [22]
  pest or weed control at 500 g/ha: 50%
[13]; [21]
  pest or weed control at 125 g/ha: 0%
[13]; [22]
  pest or weed control at 500 g/ha: 0%
[14]; [21]
  pest or weed control at 125 g/ha: 0%
[14]; [22]
  pest or weed control at 500 g/ha: 0%
[15]; [21]
  pest or weed control at 125 g/ha: 0%
[15]; [22]
  pest or weed control at 500 g/ha: 0%
[16]; [21]
  plant injury at 125 g/ha: 0%
[16]; [22]
  plant injury at 500 g/ha: 0%
[17]
  pest or weed control at 250 g/ha: 0%
[18]
  pest or weed control at 250 g/ha: 90%
[19]
  pest or weed control at 250 g/ha: 0%
[20]
  pest or weed control at 250 g/ha: 0%
